What is called AC50 is the concentration giving half of the maximal activity seen. Read a low AC50 as greater potency.

The values that follow come from ChEMBL document CHEMBL5291721, “A preclinical secondary pharmacology resource illuminates target-adverse drug reaction associations of marketed drugs” (Nat Commun, 2023).

Experiment [1] deals with Sodium-dependent noradrenaline transporter (Homo sapiens, UniProt P23975).
Experiment [2] has as its target T1, Amine oxidase [flavin-containing] A (Homo sapiens, UniProt P21397).
T1 sequence (P21397 whole entry): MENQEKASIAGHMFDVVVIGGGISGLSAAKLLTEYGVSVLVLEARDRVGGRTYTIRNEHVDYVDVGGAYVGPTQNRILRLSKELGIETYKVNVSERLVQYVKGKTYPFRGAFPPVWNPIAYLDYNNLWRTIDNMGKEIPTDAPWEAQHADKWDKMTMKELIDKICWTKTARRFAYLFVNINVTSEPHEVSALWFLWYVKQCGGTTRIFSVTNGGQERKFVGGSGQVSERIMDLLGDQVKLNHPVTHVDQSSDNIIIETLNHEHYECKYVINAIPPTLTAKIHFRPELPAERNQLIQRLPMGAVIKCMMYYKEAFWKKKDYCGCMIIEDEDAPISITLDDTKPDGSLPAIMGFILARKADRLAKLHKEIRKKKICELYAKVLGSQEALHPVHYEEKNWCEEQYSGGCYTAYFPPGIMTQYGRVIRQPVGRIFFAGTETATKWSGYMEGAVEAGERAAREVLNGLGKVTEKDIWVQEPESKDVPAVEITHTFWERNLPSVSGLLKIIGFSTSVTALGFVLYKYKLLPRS
Type of experiment: functional.

In the next experiment the target is T2, Adenosine receptor A3 (Homo sapiens, UniProt P0DMS8).
T2 sequence (P0DMS8 whole entry): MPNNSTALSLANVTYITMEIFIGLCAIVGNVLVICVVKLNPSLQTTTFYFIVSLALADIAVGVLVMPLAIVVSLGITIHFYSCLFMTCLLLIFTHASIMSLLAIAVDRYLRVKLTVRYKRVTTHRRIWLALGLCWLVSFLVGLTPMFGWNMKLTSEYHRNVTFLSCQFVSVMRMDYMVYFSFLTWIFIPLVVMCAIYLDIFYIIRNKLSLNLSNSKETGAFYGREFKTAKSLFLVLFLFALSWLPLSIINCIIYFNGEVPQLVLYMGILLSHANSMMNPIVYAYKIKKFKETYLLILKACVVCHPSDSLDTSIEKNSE

A further experiment has as its target T3, Estrogen receptor (Homo sapiens, UniProt P03372).
T3 sequence (P03372 whole entry): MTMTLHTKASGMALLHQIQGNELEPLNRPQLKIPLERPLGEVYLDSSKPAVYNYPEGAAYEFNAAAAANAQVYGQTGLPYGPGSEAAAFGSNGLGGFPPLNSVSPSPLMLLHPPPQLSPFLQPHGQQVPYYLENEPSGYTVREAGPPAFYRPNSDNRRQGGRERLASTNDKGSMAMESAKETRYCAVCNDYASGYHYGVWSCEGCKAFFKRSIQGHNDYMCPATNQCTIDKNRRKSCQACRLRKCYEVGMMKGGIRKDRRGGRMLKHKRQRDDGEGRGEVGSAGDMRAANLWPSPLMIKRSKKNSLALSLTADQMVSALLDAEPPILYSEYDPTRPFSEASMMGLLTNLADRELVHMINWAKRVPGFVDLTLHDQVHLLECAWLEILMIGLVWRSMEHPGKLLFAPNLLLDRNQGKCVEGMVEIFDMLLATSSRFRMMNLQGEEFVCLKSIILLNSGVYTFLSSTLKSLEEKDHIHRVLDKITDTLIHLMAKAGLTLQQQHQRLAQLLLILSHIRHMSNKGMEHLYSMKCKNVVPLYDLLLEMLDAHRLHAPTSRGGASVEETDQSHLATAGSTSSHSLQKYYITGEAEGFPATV

Experiment [3] has as its target T4, Prostaglandin G/H synthase 1 (Rattus norvegicus, UniProt Q63921).
T4 sequence (Q63921 whole entry): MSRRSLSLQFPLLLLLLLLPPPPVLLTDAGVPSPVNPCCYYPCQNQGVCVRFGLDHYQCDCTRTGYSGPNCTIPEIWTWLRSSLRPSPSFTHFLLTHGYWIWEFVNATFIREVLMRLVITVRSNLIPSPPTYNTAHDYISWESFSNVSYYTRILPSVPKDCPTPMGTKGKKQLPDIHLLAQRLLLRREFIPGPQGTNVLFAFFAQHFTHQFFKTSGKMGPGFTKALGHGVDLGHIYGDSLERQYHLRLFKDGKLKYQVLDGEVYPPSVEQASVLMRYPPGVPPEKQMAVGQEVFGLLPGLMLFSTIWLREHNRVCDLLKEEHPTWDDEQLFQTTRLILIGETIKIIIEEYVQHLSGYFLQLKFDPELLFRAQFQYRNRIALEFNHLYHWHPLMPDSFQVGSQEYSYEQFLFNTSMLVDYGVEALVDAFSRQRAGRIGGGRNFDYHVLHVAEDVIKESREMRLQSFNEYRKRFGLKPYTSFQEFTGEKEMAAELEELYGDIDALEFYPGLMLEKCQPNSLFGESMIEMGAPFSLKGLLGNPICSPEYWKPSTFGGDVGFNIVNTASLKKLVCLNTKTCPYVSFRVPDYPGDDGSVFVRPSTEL
The format is functional.

The next experiment has as its target T5, Progesterone receptor (Homo sapiens, UniProt P06401).
T5 sequence (P06401 whole entry): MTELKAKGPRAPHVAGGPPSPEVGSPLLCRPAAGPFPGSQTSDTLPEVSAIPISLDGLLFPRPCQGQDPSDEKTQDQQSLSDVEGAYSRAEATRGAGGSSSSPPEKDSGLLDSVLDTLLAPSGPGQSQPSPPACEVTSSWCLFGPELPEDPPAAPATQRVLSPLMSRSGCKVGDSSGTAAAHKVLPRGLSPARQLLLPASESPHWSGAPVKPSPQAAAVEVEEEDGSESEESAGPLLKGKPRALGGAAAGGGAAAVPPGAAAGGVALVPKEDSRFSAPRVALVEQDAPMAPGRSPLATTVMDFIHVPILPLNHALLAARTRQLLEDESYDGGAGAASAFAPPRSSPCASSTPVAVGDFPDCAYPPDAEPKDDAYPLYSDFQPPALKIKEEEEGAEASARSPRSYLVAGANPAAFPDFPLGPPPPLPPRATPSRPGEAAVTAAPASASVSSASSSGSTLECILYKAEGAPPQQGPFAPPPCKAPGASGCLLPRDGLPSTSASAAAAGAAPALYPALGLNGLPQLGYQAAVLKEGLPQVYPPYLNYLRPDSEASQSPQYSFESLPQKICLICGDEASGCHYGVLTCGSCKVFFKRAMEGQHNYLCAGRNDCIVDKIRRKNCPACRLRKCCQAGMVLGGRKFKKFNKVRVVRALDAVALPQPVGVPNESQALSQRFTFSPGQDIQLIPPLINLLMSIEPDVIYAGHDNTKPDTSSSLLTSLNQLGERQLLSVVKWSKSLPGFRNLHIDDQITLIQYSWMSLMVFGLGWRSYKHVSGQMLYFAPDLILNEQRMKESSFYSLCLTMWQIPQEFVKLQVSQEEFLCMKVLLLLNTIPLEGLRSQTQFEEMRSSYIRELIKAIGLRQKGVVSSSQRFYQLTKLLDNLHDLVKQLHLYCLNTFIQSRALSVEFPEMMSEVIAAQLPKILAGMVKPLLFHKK
The format is functional.
Note: assay procedure not described here.

Sodium-dependent noradrenaline transporter, sequence (P23975 whole entry): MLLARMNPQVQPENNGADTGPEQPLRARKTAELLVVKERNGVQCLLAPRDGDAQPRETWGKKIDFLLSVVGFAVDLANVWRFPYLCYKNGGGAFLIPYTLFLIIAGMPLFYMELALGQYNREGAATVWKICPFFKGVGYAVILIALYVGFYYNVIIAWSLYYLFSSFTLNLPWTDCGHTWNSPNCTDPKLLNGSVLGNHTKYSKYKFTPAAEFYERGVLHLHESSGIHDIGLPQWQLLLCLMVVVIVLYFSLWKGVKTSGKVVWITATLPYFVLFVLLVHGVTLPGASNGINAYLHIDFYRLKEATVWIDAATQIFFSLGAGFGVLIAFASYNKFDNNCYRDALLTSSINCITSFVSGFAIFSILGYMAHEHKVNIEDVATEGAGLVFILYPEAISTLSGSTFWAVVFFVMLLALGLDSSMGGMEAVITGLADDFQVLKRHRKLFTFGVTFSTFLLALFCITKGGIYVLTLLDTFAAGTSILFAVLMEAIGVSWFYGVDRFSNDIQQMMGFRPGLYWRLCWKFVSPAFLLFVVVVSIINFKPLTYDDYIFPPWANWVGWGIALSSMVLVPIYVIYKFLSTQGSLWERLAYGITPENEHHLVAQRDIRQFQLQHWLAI

`O=C(/C=C/c1cccc(S(=O)(=O)Nc2ccccc2)c1)NO` [BELINOSTAT]: the AC50 was above 30 µM in experiment [1], above 10 µM in experiment [2], above 30 µM at Adenosine receptor A3 and above 30 µM on Estrogen receptor.

Regarding `COc1ccc([C@@H]2CC(=O)c3c(O)cc(O)cc3O2)cc1O` [HESPERETIN], the AC50 was 30.7 µM in experiment [3]; above 10 µM in experiment [2]; above 10 µM on Adenosine receptor A3; above 10 µM on Estrogen receptor; above 10 µM at Progesterone receptor.

`CNCCc1ccc(OC(=O)C(C)C)c(OC(=O)C(C)C)c1` [IBOPAMINE]: the AC50 (in experiment [3]; in experiment [2]; at Adenosine receptor A3; at Estrogen receptor; at Progesterone receptor) was above 30 µM each time.

On to `CCOC(=O)C1=C(C)NC(C)=C(C(=O)OCC)C1c1ccccc1/C=C/C(=O)OC(C)(C)C` [LACIDIPINE], for which the AC50 is above 30 µM in experiment [3]; above 30 µM in experiment [2]; 15 µM at Adenosine receptor A3; above 30 µM on Estrogen receptor; above 30 µM at Progesterone receptor.

For the compound `COC(=O)C1=C(C)NC(C)=C(C(=O)OCCN2CCN(C(c3ccccc3)c3ccccc3)CC2)C1c1cccc([N+](=O)[O-])c1` (stereo not given) [MANIDIPINE 6300], the AC50 in experiment [3] was 7.4 µM; in experiment [2], above 30 µM; on Adenosine receptor A3, 3.8 µM; on Estrogen receptor, above 1 µM; at Progesterone receptor, above 30 µM.

Turning to `C=C1c2cccc(O)c2C(=O)C2=C(O)[C@]3(O)C(=O)C(C(N)=O)=C(O)[C@@H](N(C)C)[C@@H]3[C@@H](O)[C@H]12` [METHACYCLINE], the AC50 in experiment [3] is above 30 µM; in experiment [2], above 10 µM; on Adenosine receptor A3, above 30 µM; at Estrogen receptor, above 30 µM; at Progesterone receptor it was above 30 µM.

Consider `O=C(O)c1cccnc1Nc1cccc(C(F)(F)F)c1` [NIFLUMIC ACID], for which the concentration at half-maximal activity (AC50) in experiment [3] is 30 µM; in experiment [2], above 10 µM; at Adenosine receptor A3 it was above 10 µM; on Estrogen receptor, above 10 µM; on Progesterone receptor, above 10 µM.

Consider `O=C1c2cccc3c2[C@H](CCC3)CN1[C@@H]1CN2CCC1CC2` [PALONOSETRON], for which the AC50 (in experiment [3]; in experiment [2]; on Adenosine receptor A3; at Estrogen receptor; at Progesterone receptor) was above 30 µM throughout.

For the compound `OC[C@H]1O[C@@H](n2cnc3c2NC=NC[C@H]3O)C[C@@H]1O` [PENTOSTATIN], the AC50 in experiment [3] was 6.6 µM; in experiment [2], above 30 µM; at Adenosine receptor A3, 3.6 µM; at Estrogen receptor, above 30 µM; at Progesterone receptor, above 30 µM.

For the compound `O=C1c2ccccc2C(=O)C1c1ccccc1` [PHENINDIONE], the AC50 (in experiment [3]; in experiment [2]; on Adenosine receptor A3; at Estrogen receptor; on Progesterone receptor) was above 10 µM in each case.

On to `Cc1cccc(C)c1NC(=O)CC12CCCN1CCC2` [PILSICAINIDE], for which the AC50 (in experiment [3]; in experiment [2]; at Adenosine receptor A3; at Estrogen receptor; at Progesterone receptor) was above 30 µM throughout.

In the case of `CCCN1CC(NS(=O)(=O)N(CC)CC)CC2Cc3c(O)cccc3CC21` (stereo not given) [QUINAGOLIDE], the AC50 (in experiment [3]; in experiment [2]; on Adenosine receptor A3; on Estrogen receptor; on Progesterone receptor) was above 30 µM throughout.

For the compound `O=S1(=O)CCN(CN2CCS(=O)(=O)NC2)CN1` [TAUROLIDINE], the AC50 (in experiment [3]; in experiment [1]; in experiment [2]; at Adenosine receptor A3; at Estrogen receptor; at Progesterone receptor) was above 30 µM throughout.

Turning to `C[C@]12C=CC(=O)C=C1CC[C@@H]1[C@@H]2CC[C@]2(C)OC(=O)CC[C@@H]12` [TESTOLACTONE], the AC50 (in experiment [3]; in experiment [2]; at Adenosine receptor A3; on Estrogen receptor; on Progesterone receptor) was above 10 µM each time.

`CCOC(=O)c1c(CSc2ccccc2)n(C)c2cc(Br)c(O)c(CN(C)C)c12` [UMIFENOVIR]: the AC50 was 19 µM in experiment [3]; above 30 µM in experiment [2]; above 30 µM at Adenosine receptor A3; above 30 µM at Estrogen receptor; above 30 µM on Progesterone receptor.
